Results published in ChEMBL document CHEMBL3046840, “Cyclobutane carboxamide inhibitors of fungal melanin: biosynthesis and their evaluation as fungicides” (Bioorg Med Chem, 2000).

target: T1, Scytalone dehydratase (Magnaporthe oryzae (strain 70-15 / FGSC 8958) (Rice blast fungus)(Pyricularia oryzae), UniProt P56221)
T1 sequence (P56221 whole entry): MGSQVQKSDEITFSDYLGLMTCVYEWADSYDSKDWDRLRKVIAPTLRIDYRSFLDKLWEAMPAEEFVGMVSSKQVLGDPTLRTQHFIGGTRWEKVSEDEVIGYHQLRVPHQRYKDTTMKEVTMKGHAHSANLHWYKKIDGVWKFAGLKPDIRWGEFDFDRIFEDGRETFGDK

Question: `C[C@@H](NC(=O)[C@]1(C(F)(F)F)C[C@@](C)(Cl)C1)c1ccc(Cl)cc1Cl` was tested. Which Ki did it give?
Answer: 0.011 nM

Question: For `C[C@H](COc1cc(F)ccc1Cl)NC(=O)[C@]1(C)C[C@](C)(Cl)C1`, which Ki is on record?
Answer: 0.057 nM

Question: `C[C@H](COc1ccccc1F)NC(=O)[C@]1(C(F)(F)F)C[C@@](C)(Cl)C1` was tested. Which Ki did it give?
Answer: 0.35 nM

Question: Which Ki does the source give for `C[C@@H](NC(=O)C1CCC1)c1ccc(Br)cc1` here?
Answer: 520 nM

Question: With `C[C@@H](NC(=O)[C@H]1C[C@@](C)(Cl)C1)c1ccc(Br)cc1` as the molecule, how does the Ki read?
Answer: 44 nM

Question: `C[C@@H](NC(=O)C1(Cl)CC(Cl)(Cl)C1)c1ccc(Br)cc1` was tested. Which Ki did it give?
Answer: 0.45 nM

Question: With `C[C@@H](NC(=O)C1(C)CC(F)(F)C1)c1ccc(Br)cc1` as the molecule, how does the Ki read?
Answer: 6 nM

Question: How did the Ki turn out when `C[C@@H](NC(=O)[C@]1(C)C[C@](C)(Cl)C1)c1ccc(Br)cc1` was run?
Answer: 0.1 nM

Question: `C[C@@H](NC(=O)[C@]1(C)C[C@](Cl)(CCl)C1)c1ccc(Br)cc1` was tested. Which Ki did it give?
Answer: 0.027 nM

Question: For `C[C@@H](NC(=O)[C@]1(C)C[C@@](Cl)(CCl)C1)c1ccc(Br)cc1`, which Ki is on record?
Answer: 0.016 nM

Question: With `CC[C@]1(C(=O)N[C@H](C)c2ccc(Br)cc2)C[C@@](C)(Cl)C1` as the molecule, how does the Ki read?
Answer: 0.021 nM

Question: Which Ki does the source give for `C[C@@H](NC(=O)[C@]1(C)C[C@](C)(O)C1)c1ccc(Br)cc1` here?
Answer: 480 nM

Question: With `C[C@@H](NC(=O)[C@]1(C)C[C@@](C)(O)C1)c1ccc(Br)cc1` as the molecule, how does the Ki read?
Answer: 16 nM

Question: `C#C[C@]1(O)C[C@@](C)(C(=O)N[C@H](C)c2ccc(Br)cc2)C1` was tested. Which Ki did it give?
Answer: 28 nM

Question: For `CC[C@]1(O)C[C@@](C)(C(=O)N[C@H](C)c2ccc(Br)cc2)C1`, which Ki is on record?
Answer: 3.2 nM

Question: With `C[C@@H](NC(=O)[C@]1(C)C[C@](C)(Cl)C1)c1ccc(Cl)cc1Cl` as the molecule, how does the Ki read?
Answer: 0.012 nM

Question: Which Ki does the source give for `C[C@@H](NC(=O)[C@]1(C)C[C@](C)(Cl)C1)c1cccc2ccccc12` here?
Answer: 3.2 nM

Question: Which Ki does the source give for `C[C@@H](NC(=O)[C@]1(C)C[C@](C)(Cl)C1)c1ccc2ccccc2c1` here?
Answer: 0.016 nM

Question: With `C[C@H](COc1cc(F)ccc1F)NC(=O)[C@]1(C)C[C@](C)(Cl)C1` as the molecule, how does the Ki read?
Answer: 0.42 nM

Question: `C[C@@H](NC(=O)[C@]1(C(F)(F)F)C[C@@](C)(Cl)C1)c1ccc(Br)cc1` was tested. Which Ki did it give?
Answer: 0.43 nM

Question: With `C[C@@H](NC(=O)[C@]1(C(F)(F)F)C[C@@](C)(Cl)C1)c1ccc(Cl)cc1` as the molecule, how does the Ki read?
Answer: 0.067 nM

Question: For `CC(C)C(C)(C#N)NC(=O)[C@H](C)Oc1ccc(Cl)cc1Cl` (stereo not given in full), which Ki is on record?
Answer: 0.13 nM

Question: For `C[C@@H](NC(=O)C1(Cl)CC(C)(Cl)C1)c1ccc(Br)cc1` (mixture of isomers), which Ki is on record?
Answer: 0.31 nM

Question: Which Ki does the source give for `COc1cc(Br)ccc1C(C)NC(=O)[C@]1(C)C[C@](C)(Cl)C1` (mixture of isomers) here?
Answer: 0.03 nM

Question: How did the Ki turn out when `C[C@@H](NC(=O)C(C#N)C(C)(C)C)c1ccc(Cl)cc1Cl` (stereo not given in full) [DICLOCYMET] was run?
Answer: 0.036 nM
